Measurements published in patent US10428151B2, “Treatment of hematologic malignancies with an anti-CXCR4 antibody” (BRISTOL-MYERS SQUIBB COMPANY, priority 2011, dated 2019).
“Also recorded” adds a separate entry of the source.

Legend:
RPMI-8226 cells = assay: RPMI-8226 MM xenograft in SCID mice; format: in vivo
Procedure: The mice were randomized (n=8) when the tumor volume reached approximately 20 mm^3, dosed on Days 0, 3, 7, 10 and 14 with MDX-1338 (10 mg/kg/dose) alone or in combination with 50 mg/kg lenalidomide or in combination with 0.8 mg/kg bortezomib.

[1] = test system: Bortezomib-resistant JJN-3R cells; assay: JJN-3R MM xenograft in SCID mice; format: in vivo; details: lenalidomide 50 mg/kg/dose IP, bortezomib 0.8 mg/kg/dose IV
parental JJN-3 cells = assay: JJN-3 MM xenograft in SCID mice; format: in vivo; details: bortezomib 0.8 mg/kg/dose IV, lenalidomide 50 mg/kg/dose IP
Text: 5 million JJN-3 cells/mouse were implanted into SCID mice and the mice were randomized into groups of 8 when the tumor volume reached approximately 77 mm^3.

MM.1S cells = assay: MM.1S MM xenograft in SCID mice; format: in vivo
OPM-2 cells = assay: OPM-2 MM xenograft in SCID mice
Text: OPM-2 cells (10 million) were implanted into SCID mice as described.

MOLP-8 cells = assay: MOLP-8 MM xenograft in SCID mice; format: in vivo; details: for efficacy in MOLP8 tumors: lenalidomide 50 mg/kg, bortezomib 0.8 mg/kg, BMS-936564 10 mg/kg/dose
Procedure: In all the experiments, the mice were injected intraperitoneally on Days 0 and 7 with an IgG4 isotype control and a PBS vehicle control.

Ramos cells [2] = assay: Ramos cell proliferation, Cell-Titer-Glo; format: cell-based, human; details: 72 hours
Procedure: Ramos cells were suspended at 1×10^5 cells/mL in growth media, incubated with the relevant antibodies, including isotype controls, and other test agents and cultured for 72 hours at 37° C. Cell-Titer-Glo (Promega) was added to wells, mixed, and incubated at room temperature for 10 minutes. The plate was read on a GloMax Luminometer (Promega).

Ramos cells [3] = assay: Apoptosis of Ramos cells, Annexin V-FITC/PI, vs AMD3100; format: cell-based, human; details: 24 hours, antibody 10 μg/mL, AMD3100 6 μM
Procedure: Cells were stained with Annexin V-FITC and propidium iodide (A). The percent of cells positive for Annexin V only or both Annexin V and PI double positive was determined (B).
Cells were stained with Annexin V-FITC and propidium iodide (PI).

CXCR4 [4] = biological target: T1, CXCR4 (Homo sapiens, UniProt P61073); assay: 125I-CXCL12 binding competition on CEM cells (first experiment); details: 100 pM 125I-CXCL12
Procedure: A comparison of anti-CXCR4 antibodies on blocking CXCL12 binding to CEM cells was performed by a standard radio-labeled ligand binding assay. The anti-CXCR4 antibodies were serially diluted 1:3 to yield a range of concentrations from 300 nM to 137 pM. […] An irrelevant antibody of the same isotype was used as a negative control.

[5] = test system: human umbilical vein endothelial cells (HuVEC); assay: HuVEC capillary tube formation; format: cell-based; details: HuVEC on MATRIGEL, 18 hours
Procedure: In this example, the ability of the anti-CXCR4 human antibodies to inhibit capillary tube formation by human umbilical vein endothelial cells (HuVEC) was examined […]® was diluted 1:1 with RPMI and plated onto the wells of a 96 well plate and allowed to polymerize for 30 minutes at 37° C. HuVEC (from Cambrex, cat. # CC-2519) at 80% confluence were trypsinized and resuspended at 1×10^6 cells per ml in RPMI with 0.5% FBS. Antibodies were well mixed with HuVEC at a final concentration of 3 mg/ml and allowed to incubate at room temperature for 30 minutes. An irrelevant antibody of the same isotype or media alone was used as a negative control. As a positive control of inhibition of tube formation, a mouse anti-human αvβ3 (CD51/CD61) antibody (R&D Systems, cat. # MAB3050) was used. HuVEC with or without antibodies were plated onto the […]®-coated wells and incubated at 37° C. for 18 hours.
The HuVEC incubated with media alone or with the isotype-matched control antibody formed capillary tubes resulting in the appearance of connected cells across the plate with 3-5 points of connection or branch points per cell. […] The cells appeared isolated and with few or no branch points.

CXCR4 [6] = biological target: T1, CXCR4; assay: CXCL12-induced calcium flux in CEM cells (Calcium 3 dye); format: cell-based; details: 50 nM CXCL12α
Text: As a negative control, an irrelevant antibody of the same isotype was used.

Ramos tumor cells = assay: Ramos cell proliferation, 3H-thymidine incorporation; format: cell-based, human; details: 10^−3 to 300 nM; 72 hours
Procedure: In this example, the ability of the anti-CXCR4 human antibodies to inhibit proliferation of Ramos tumor cells (a human Burkitt's lymphoma cell line) in vitro was examined. […] The cells were incubated with antibody for 72 hours, with ^3H-thymidine being added for the final 24 hours of incubation to allow for monitoring of cell proliferation. Following the incubation, incorporation of ^3H-thymidine by the cells was measured by standard techniques. The results are shown in the graph of FIG. 11A.

CXCR4 [7] = biological target: T1, CXCR4; assay: CXCL12-induced migration of CEM cells (first experiment); format: cell-based; details: 5 nM CXCL12α
Procedure: The anti-CXCR4 antibodies were titrated in a 1:3 serial dilution series resulting in a concentration range from 100 nM to 1 pM and allowed to bind to labeled CEM cells at a density of 10 million cells per ml. As a negative control, an irrelevant antibody of the same isotype was used. Recombinant human CXCL12α (Peprotech) was added at 5 nM at 30 μl per well to the lower chamber of a 96 well Neuroprobe migration plate with 5.7 mm diameter filters per well. Each well contains […]. Labeled CEM cells with and without antibody were loaded onto the filters at a concentration of 0.5 million cells per well in a volume of 50 μl. The migration plate was incubated at 37° C. for 2.5 hours. […] The chemiluminescent signal was recorded on a Fusion instrument.

CXCR4 [8] = biological target: T1, CXCR4; assay: Competition with FITC-labeled F9 for binding to CEM cells; details: 300 nM to 5 pM
Procedure: To determine the ability of a panel of anti-CXCR4 antibodies to compete for binding to CXCR4, competition studies were performed. […] The mixture of antibodies was then added to CEM cells and allowed to bind.

T1 sequence (P61073 whole entry): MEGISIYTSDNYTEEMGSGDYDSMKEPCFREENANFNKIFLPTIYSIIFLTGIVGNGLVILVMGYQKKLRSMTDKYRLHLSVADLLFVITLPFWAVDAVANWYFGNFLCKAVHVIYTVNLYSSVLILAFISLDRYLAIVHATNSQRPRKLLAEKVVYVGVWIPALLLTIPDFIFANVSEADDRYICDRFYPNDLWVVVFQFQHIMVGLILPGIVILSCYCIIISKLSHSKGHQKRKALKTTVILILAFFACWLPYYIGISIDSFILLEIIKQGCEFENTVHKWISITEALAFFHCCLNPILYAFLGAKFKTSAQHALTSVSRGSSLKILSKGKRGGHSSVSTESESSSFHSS

Nc1cccc2c1CN(C1CCC(=O)NC1=O)C2=O (stereo not shown) [lenalidomide, reference compound]
efficacy in RPMI-8226 model (RPMI-8226 cells; 50 mg/kg): marginal efficacy | tumor growth inhibition [1]: Neither lenalidomide nor bortezomib alone inhibited tumor growth | efficacy in inhibiting tumor growth (parental JJN-3 cells): ineffective in inhibiting tumor growth | mean tumor growth inhibition (MM.1S cells; Day 25, compared to isotype control, MDX-1338 10 mg/kg/dose, lenalidomide 100 mg/kg): 70% | tumor growth inhibition (MM.1S cells; MM.1S): REVLIMID ® = 70% | efficacy in OPM-2 model (OPM-2 cells; lenalidomide 50 mg/kg/dose IP): minimal efficacy | tumor growth inhibition (MOLP-8 cells; MOLP8): alone = 35% | efficacy in MOLP8 tumors (MOLP-8 cells): relatively resistant

CC[C@@]1(O)C(=O)OCc2c1cc1n(c2=O)Cc2cc3ccccc3nc2-1 [Camptothecin]
inhibition of Ramos cell proliferation (Ramos cells [2]; 10 μM): completely inhibited cell proliferation

c1cc(CN2CCCNCCNCCCNCC2)ccc1CN1CCCNCCNCCCNCC1 [AMD3100, Plerixafor]
inhibition of Ramos cell proliferation (Ramos cells [2]): did not inhibit proliferation | percent of cells Annexin V/PI double positive (Ramos cells [3]): 2.7% | percent of cells positive for Annexin V only (Ramos cells [3]): 2.0%

CC(C)C[C@H](NC(=O)[C@H](Cc1ccccc1)NC(=O)c1cnccn1)B(O)O [bortezomib, reference compound]
mean tumor growth inhibition (RPMI-8226 cells; Day 44, compared to isotype control, MDX-1338 10 mg/kg, lenalidomide 50 mg/kg, bortezomib 0.8 mg/kg): 70% | tumor growth inhibition [1]: Neither lenalidomide nor bortezomib alone inhibited tumor growth | efficacy in inhibiting tumor growth (parental JJN-3 cells): marginal efficacy | median tumor growth inhibition (OPM-2 cells; Day 24, compared to vehicle control, MDX-1338 10 mg/kg/dose IP, bortezomib 0.8 mg/kg/dose IV): 75% | efficacy in MOLP8 tumors (MOLP-8 cells): relatively resistant

B1: E2: human anti-CXCR4 monoclonal antibody; VH SEQ ID NO: 28, VL SEQ ID NO: 32 (antibody, listed as Homo sapiens, V domains shown)
VH: EVQLVQSGGGLVQPGGSLRLSCAAAGFTFSSYSMNWVRQAPGKGLEWVSYISSRSRTIYYADSVKGRFTISRDNAKNSLYLQMNSLRDEDTAVYYCARDYGGQPPYHYYYGMDVWGQGTTVTVSS
VL: EIVLTQSPSSLSASVGDRVTITCRASQGISNWLAWYQQKPEKAPKSLIYAASSLQSGVPSRFSGSGSGTDFTLTISSLQPEDFATYYCQQYNSYPRTFGQGTKVEIK
blockade of CXCL12 binding to CXCR4 (CXCR4 [4]): did not effectively block CXCL12 binding | inhibition of capillary tube formation [5]: did not inhibit capillary tube formation | inhibition of CXCL12α-induced calcium flux (CXCR4 [6]): did not significantly inhibit | inhibition of Ramos cell proliferation (3H-thymidine incorporation) (Ramos tumor cells): able to inhibit Ramos cell proliferation | inhibition of CXCL12α-induced migration (CXCR4 [7]): did not significantly inhibit migration | ability to compete with F9 for binding to CEM cells (CXCR4 [8]): able to compete with F9; also recorded: partial inhibition at high concentrations

B2: D1: human anti-CXCR4 monoclonal antibody; VH SEQ ID NO: 27, VL SEQ ID NO: 31 (antibody, listed as Homo sapiens, V domains shown)
VH: EVQLVQSGGGLVQPGGSLRLSCAAAGFTFSSYSMNWVRQAPGKGLEWVSYISSRSKTIYYADSVKGRFTISRDNARNSLYLQMNSLRDEDTAVYYCARDYGGQPPYYYYYGMDVWGQGTTVTVSS
VL: VIWVTQSPSSLSASVGDRVTITCRTSQGISSWLAWYQQKPEKAPELLIYAASSLQSGVPSRFSGSGSGTDFTLTISSLQPEDFATYYCQQYNSYPRTFGQGTKVEIK
inhibition of CXCL12α-induced migration (CXCR4 [7]): did not significantly inhibit migration | ability to compete with F9 for binding to CEM cells (CXCR4 [8]): able to compete with F9
